Measured values as given in patent US10011568B2, “Cyclohexyl pyridine derivative” (priority 2014, dated 2018).

Columns and labels:
[1] = Measurement of drug concentrations in the brain after foot-tapping; format: in vivo; details: male gerbil, 0.1 mg/kg iv, after foot-tapping was finished
Experimental: (§1) A male gerbil (Japan SLC) was anesthetized with isoflurane, and 0.1 mg/kg of a test compound was administered from the jugular vein. After four hours. GR73632 (5 pmol/5 μl saline), which is an NK1 receptor agonist, was administered into the cerebral ventricle at the part 1 mm lateral to and 4.5 mm below the bregma in the head, under anesthesia with isoflurane. After the administration, the gerbil was moved to an observation cage, and the foot-tapping period during 30 minutes after the recovery of the righting reflex was measured. The foot-tapping inhibition rate (%) of each test compound was calculated by the following equation. Foot-tapping inhibition rate (%)−{1−(Fool-tapping period when test compound was administered)/(Foot-tapping period when solvent was administered)}×100 (2) Measurement of Drug Concentrations
After foot-tapping was finished, laparotomy was performed immediately under anesthesia with ether, and a blood sample was taken from the abdominal vena cava. At the same lime, the brain was extracted. Through a quantitative analysis using liquid chromatography-mass spectrometry (LC/MS), the concentrations of the test compound in the plasma and the brain were measured.
(§2) In the table, Ex. No. means the Example number. Inhibition (%) is the loot-tapping inhibition rate, and Cone. (nM) is the drug concentration in the brain.

human CYP3A4 = human CYP3A4 (Homo sapiens (Human), UniProt P08684); test: Inhibitory effect on CYP3A4; format: in vitro ADME; details: 30-minute pre-incubation, Luciferin-IPA substrate; read-out: IC50 (μM), CYP3A4 inhibition
human CYP3A4, sequence (P08684 whole entry): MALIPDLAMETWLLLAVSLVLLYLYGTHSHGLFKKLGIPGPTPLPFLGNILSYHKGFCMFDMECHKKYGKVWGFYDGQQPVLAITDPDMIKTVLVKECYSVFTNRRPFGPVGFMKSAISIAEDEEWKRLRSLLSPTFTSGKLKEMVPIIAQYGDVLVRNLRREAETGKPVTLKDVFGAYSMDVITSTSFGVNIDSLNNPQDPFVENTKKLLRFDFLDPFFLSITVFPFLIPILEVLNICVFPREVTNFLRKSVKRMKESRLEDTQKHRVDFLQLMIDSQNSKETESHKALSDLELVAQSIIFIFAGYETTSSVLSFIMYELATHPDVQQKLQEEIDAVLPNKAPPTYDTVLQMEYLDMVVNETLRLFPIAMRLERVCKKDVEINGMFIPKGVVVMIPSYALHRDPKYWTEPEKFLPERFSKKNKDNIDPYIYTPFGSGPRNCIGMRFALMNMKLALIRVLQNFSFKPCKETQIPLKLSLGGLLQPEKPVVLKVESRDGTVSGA
Experimental: Inhibitory Effect on CYP3A4
Enzyme reaction was performed by incubating in a potassium phosphate buffer solution (pH 7.4) containing 1 nM to 20 μM test compound, 3.2 mM magnesium chloride, 0.2 pmol human CYP3A4 (BD Biosciences), 0.5 mM reduced nicotinamide adenine dinucleotide phosphate (NADPH) and 3 μM Luciferin-IPA (Promega) at 37° C. for 10 minutes. The volume of the reaction solution was 50 μL/well. The 30-minute pre-incubation group was incubated at 37° C. for 30 minutes before adding tire substrate, the Luciferin-IPA solution (12.5 μL/well). At the end of the enzyme reaction, 50 μL/well of a Luciferin detection reagent (Promega) was added to the wells, and the plate was left at room temperature for 20 minutes. Then, the emission intensities were measured with Infinite M1000 (TECAN). The enzyme activities (%) relative to the value of the group to which the test compound was not added were calculated.

human NK1 receptor [2] = biological target: T1, human NK1 receptor (Homo sapiens (Human), UniProt P25103); test: Inhibitory effect on human NK1 receptor (substance P-induced increase in intracellular calcium concentration); format: cell-based; details: substance P 1 μM, compound 0.1 μM; read-out: SPRR (%), Substance P-Response Remaining (intracellular calcium concentration)
T1 sequence (P25103 whole entry): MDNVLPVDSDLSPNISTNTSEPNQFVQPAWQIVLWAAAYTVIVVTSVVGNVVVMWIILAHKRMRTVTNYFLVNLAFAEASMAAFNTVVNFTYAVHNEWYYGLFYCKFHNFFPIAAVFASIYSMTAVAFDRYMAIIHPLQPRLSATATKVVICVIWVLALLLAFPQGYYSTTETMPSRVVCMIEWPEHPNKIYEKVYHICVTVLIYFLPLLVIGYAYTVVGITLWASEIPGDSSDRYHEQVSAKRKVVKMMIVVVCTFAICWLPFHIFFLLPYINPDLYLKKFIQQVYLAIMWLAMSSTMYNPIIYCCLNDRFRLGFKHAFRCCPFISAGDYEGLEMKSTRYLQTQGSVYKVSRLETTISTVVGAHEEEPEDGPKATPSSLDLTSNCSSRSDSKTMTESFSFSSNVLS
Experimental: Inhibitory Effect on Human NK1 Receptor
(1) Preparation of Human NK1 Receptor-Expressing Cells
Human NK1 receptor-expressing cells were prepared by the same methods as those described in 2-3 of Test Example 1.
(2) Study on Inhibitory Effect on Increase in Intracellular Calcium Concentration
The human NK1 receptor-expressing cells were washed with 300 μL/well of a washing solution (20 mM HEPES/Hank's Balanced Salt Solution (HBSS) pH 7.3). A fluorescent calcium indicator (Fluo-4 Direct Calcium Assay Kit, Life Technologies, containing 0.42 mM probenecid and 0.1% bovine serum albumin, prepared according to the protocol of the product) was added to the wells at 150 μL/well, and the plate was incubated at 37° C. for 30 minutes in an incubator. Then. DMSO solutions of a test compound, which were prepared at an 80-time higher concentration using 100% dimethyl sulfoxide (DMSO), were added to the wells at 2.5 μL/well (final concentrations of 0.1, 1 and 10 μM), and the solutions were mixed. Then, the plate was further incubated at […] for 30 minutes in an incubator. After 30 minutes, the intracellular calcium concentrations were measured immediately.
The intracellular calcium concentrations were each measured as a fluorescent signal using FDSS (registered trademark) 7000 (Hamamatsu Photonics). A substance P (Peptide Institute. Inc.) solution which was prepared at 0.4 μM or 4 μM using an assay buffer (20 mM HEPES/Hank's Balanced Salt Solution (HBSS) pH 7.3, containing 0.1% bovine serum albumin) was added automatically to each well at 50 μL/well (final concentration of 0.1 or 1 μM) 10 seconds after starting reading, and the fluorescent signal was measured up to 120 seconds.
The intracellular calcium concentration (%) of the cells to which a test compound was added was calculated by the equation below, where the fluorescent signal of the group to which the vehicle (DMSO) was added was regarded as 100%, and the fluorescent signal before the addition of substance P was regarded as 0%. Intracellular calcium concentration (%)—(Fluorescent signal of test compound addition group)/(Fluorescent signal of vehicle addition group)×100
The intracellular calcium concentration (%) calculated was regarded as the remaining agonist activity of substance P (Substance P-Response Remaining: SPRR). In the table, Ex. No. means the Example number. SPRR (%) is the value obtained when the concentration of substance P was 1 μM and the concentration of the compound was 0.1 μM.

human NK1 receptor [3] = biological target: T1, human NK1 receptor; test: Affinity for human NK1 receptor (125I-substance P receptor binding test, membrane fraction); details: membrane fraction of human NK1 receptor-expressing 293T cells; read-out: IC50 (nM), concentration required for 50% inhibition of 125I-substance P binding
Experimental: Affinity for Human NK1 Receptor
(3) Measurement of Binding Affinity to Human NK1 Receptor
(3-1) Preparation of Membrane Fraction from Human NK1 Receptor-Expressing Cells
Human NK1 receptor-expressing cells were prepared in a 175 cm^2 culture flask (Nippon Becton Dickinson). The formation of a complex of the human NK1 receptor expression plasmid and Lipofectamine 2000 was performed by calculating the culture area ratio and increasing the scale of the method described in the above 2-4 by the ratio. The human NK1 receptor-expressing cells were collected in a buffer solution for the membrane fraction preparation (50 mM Tris (Wako Pure Chemical), 120 mM sodium chloride (Wako Pure Chemical Industries), 5 mM potassium chloride (Wako Pure Chemical Industries), 1 mM ethylenediaminetetraacetic acid (Sigma), 0.002 mg/mL chymostatin (Peptide Institute), 0.04 mg/bacitracin (Wako Pure Chemical Industries), 0.005 mg/mL phosphoramidon (Peptide Institute) and 0.5 mM phenylmethylsulfonyl fluoride (Wako Pure Chemical Industries), pH7.4) and centrifuged at 1,880 g for 10 minutes, and the cell sediment was suspended in the buffer solution for the membrane fraction preparation. After freezing and thawing the cells once, the cells were homogenized using a Dounce-type homogenizer (cooled on ice, 1000 rpm, 20 times) The homogenized cell suspension was centrifuged at 20,000 rpm for 10 minutes, and the supernatant was removed to obtain cell sediment. The cell sediment was suspended again in the buffer solution for the membrane fraction preparation and homogenized using a Dounce-type homogenizer (cooled on ice, 1000 rpm, 30 times). The cell suspension was centrifuged at 20,000 rpm for 10 minutes, and the supernatant was removed to obtain cell sediment. The same homogenization and centrifugation were repeated again, and final cell sediment was obtained. The final cell sediment was suspended in a buffer solution for the receptor binding test (50 mM Tris (Wako Pure Chemical Industries). 3 mM manganese chloride (Wako Pure Chemical Industries), 0.002 mg/mL chymostatin (Peptide Institute), 0.04 mg/bacitracin (Wako Pure Chemical Industries) and 0.02% bovine serum albumin (Sigma), pH 7.4), and the protein concentration was measured using BCA Protein Assay Kit (Pierce).
(3-2) Receptor Binding Test
The buffer solution for the receptor binding test was dispensed to the wells of a 96-well assay plate (Greiner) at 22.5 μL/well. DMSO solutions of a test compound, which were prepared at an 80-time higher concentration using 100% dimethyl sulfoxide (DMSO), were added to the wells at 2.5 μL/well (final concentrations of 1 nM to 100 nM), and the solutions were mixed. As a radiolabeled ligand, ^125I-substance P (Substance P, [^125I]Tyr^8-, Perkin Elmer) was used. ^125I-substance P was diluted with the buffer solution for the receptor binding test to a concentration resulting in 125 pmol/25 μL/well and added to the 96-well assay plate, and the solutions were mixed. The membrane fraction prepared from the human NK1 receptor-expressing cells was diluted with the buffer solution for the receptor binding test to a concentration resulting in 8 to 10 μg/well, suspended until the suspension became in such a homogenous state that the suspension could flow through a 27G injection needle smoothly and then added to the 96-well assay plate at 150 μL/well. Then, the plate was incubated at room temperature for 60 minutes while shaking the plate. The reaction solutions were suction-filtered through a multiscreen 96-well filter plate (Millipore) which had been pre-treated with 0.3% polyethyleneimine, and the reaction was terminated by washing with a washing solution (50 mM Tris and 0.02% bovine serum albumin, pH 7.4) four times. The bottom of the microplate was dried at 60° C., and then 100 μL/well of MicroScint 20 (PerkinElmer) was dispensed to the wells. The top of the plate was sealed with TopSeal A (PerkinElmer), and the plate was shaken for 5 to 10 minutes. […]

NK1 receptor = NK1 receptor (Meriones unguiculatus (Mongolian jird) (Gerbillus unguiculatus), UniProt Q5DUB1); test: Effect on foot-tapping induced by NK1 receptor agonist GR73632; format: in vivo; details: male gerbil, 0.1 mg/kg iv, GR73632 after four hours
NK1 receptor, sequence (Q5DUB1 whole entry): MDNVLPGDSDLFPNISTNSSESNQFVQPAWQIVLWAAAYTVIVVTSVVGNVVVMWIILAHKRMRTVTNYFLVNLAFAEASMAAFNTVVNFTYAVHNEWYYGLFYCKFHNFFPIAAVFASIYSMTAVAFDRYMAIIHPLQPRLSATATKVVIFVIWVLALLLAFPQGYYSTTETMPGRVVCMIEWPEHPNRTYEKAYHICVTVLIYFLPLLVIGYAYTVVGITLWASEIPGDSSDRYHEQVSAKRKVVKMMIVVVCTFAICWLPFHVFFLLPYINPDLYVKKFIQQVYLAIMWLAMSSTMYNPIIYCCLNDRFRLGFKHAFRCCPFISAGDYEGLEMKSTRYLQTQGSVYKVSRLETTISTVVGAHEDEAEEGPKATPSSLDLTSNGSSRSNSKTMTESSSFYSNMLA
Experimental: (1) Effect on Foot-Tapping
The test compound solution was prepared by dissolving the test compound in a vehicle (a mixture of 50% N,N-dimethylacetamide (Wako Pure Chemical Industries), 30% propylene glycol (Wako Pure Chemical Industries). 4% 2-hydroxypropyl-β-cyclodextrin (Wako Pure Chemical Industries) and 16% distilled water).
as §1, §2

| SMILES | Conc. (nM), drug concentration in the brain [1] [nM] | IC50 (human CYP3A4) [µM] | remaining activity at 0.1 µM (human NK1 receptor [2]) [%] | IC50 (human NK1 receptor [3]) [nM] | Inhibition (%), foot-tapping inhibition rate (NK1 receptor) [%] |
| --- | --- | --- | --- | --- | --- |
| Cc1cc(F)ccc1-c1cc(C2CCC(CCC(=O)O)CC2)ncc1N(C)C(=O)C(C)(C)c1cc(C(F)(F)F)cc(C(F)(F)F)c1 (stereo not shown) [Example 2, 3-{4-[5-{[2-(3,5-Bistrifluoromethylphenyl)-2-methylpropionyl]methylamino}-4-(4-fluoro-2-methylphenyl)pyridin-2-yl]cyclohexyl}propionic Acid] | 19 | 6.8 | 7.5 | – | – |
| Cc1cc(F)ccc1-c1cc([C@H]2CC[C@@H](C(C)(C)C(=O)O)CC2)ncc1N(C)C(=O)C(C)(C)c1cc(C(F)(F)F)cc(C(F)(F)F)c1 [Example 12, cis-2-{4-[5-{[2-(3,5-Bistrifluoromethylphenyl)-2-methylpropionyl]methylamino}-4-(4-fluoro-2-methylphenyl)pyridin-2-yl]cyclohexyl}-2-methylpropionic Acid] | – | 2.2 | 53 | 4.46 | – |
| Cc1cc(F)ccc1-c1cc(C2CCC(C)(CC(=O)O)CC2)ncc1N(C)C(=O)C(C)(C)c1cc(C(F)(F)F)cc(C(F)(F)F)c1 (stereo not shown) [Example 15, {4-[5-{[2-(3,5-Bistrifluoromethylphenyl)-2-methylpropionyl]methylamino}-4-(4-fluoro-2-methylphenyl)pyridin-2-yl]-1-methylcycloheyl}acetic Acid] | 39 | – | 3.7 | – | 100 |
| Cc1cc(F)ccc1-c1cc(C2CCC(CC(=O)O)CC2)nc(CO)c1N(C)C(=O)C(C)(C)c1cc(C(F)(F)F)cc(C(F)(F)F)c1 (stereo not shown) [Example 19, {4-[5-{[2-(3,5-Bistrifluoromethylphenyl)-2-methylpropionyl]methylamino}-4-(4-fluoro-2-methylphenyl)-6-hydroxymethylpyridin-2-yl]cyclohexyl}acetic Acid] | 24 | – | 26 | 4.96 | 95 |

More lines, now with the values ahead:

| Conc. (nM), drug concentration in the brain [1] [nM] | IC50 (human CYP3A4) [µM] | remaining activity at 0.1 µM (human NK1 receptor [2]) [%] | IC50 (human NK1 receptor [3]) [nM] | Inhibition (%), foot-tapping inhibition rate (NK1 receptor) [%] | SMILES |
| --- | --- | --- | --- | --- | --- |
| – | 13 | 26 | 0.98 | – | Cc1cc(F)ccc1-c1cc(C2CCC(CC(=O)O)CC2)ncc1N(C)C(=O)C(C)(CO)c1cc(C(F)(F)F)cc(C(F)(F)F)c1 (stereo not shown) [Example 5, {4-[5-{[2-(3,5-Bistrifluoromethylphenyl)-3-hydroxy-2-methylpropionyl]methylamino}-4-(4-fluoro-2-methylphenyl)pyridin-2-yl]cyclohexyl}acetic Acid] |
| – | 6.1 | 21 | 1 | – | Cc1cc(F)ccc1-c1cc(C2CCC(O)(CC(=O)O)CC2)ncc1N(C)C(=O)C(C)(C)c1cc(C(F)(F)F)cc(C(F)(F)F)c1 (stereo not shown) [Example 6, {4-[5-{[2-(3,5-Bistrifluoromethylphenyl)-2-methylpropionyl]methylamino}-4-(4-fluoro-2-methylphenyl)pyridin-2-yl]-1-hydroxycyclohexyl}acetic Acid] |
| 57 | 3.3 | – | – | – | Cc1cc(F)ccc1-c1cc(C2CCC(CC(=O)O)CC2)nc(Cl)c1N(C)C(=O)C(C)(C)c1cc(C(F)(F)F)cc(C(F)(F)F)c1 (stereo not shown) [Example 17, {4-[5-{[2-(3,5-Bistrifluoromethylphenyl)-2-methylpropionyl]methylamino}-6-chloro-4-(4-fluoro-2-methylphenyl)pyridin-2-yl]cyclohexyl}acetic Acid] |
| 47 | 4.9 | – | 6.45 | 100 | Cc1cc(F)ccc1-c1cc(C2CCC(CC(=O)O)CC2)nc(C)c1N(C)C(=O)C(C)(C)c1cc(C(F)(F)F)cc(C(F)(F)F)c1 (stereo not shown) [Example 18, {4-[5-{[2-(3,5-Bistrifluoromethylphenyl)-2-methylpropionyl]methylamino}-4-(4-fluoro-2-methylphenyl)-6-methylpyridin-2-yl]cyclohexyl}acetic Acid] |
